# Columns and labels:
# sang humain [1] = experiment: Haemolysis evaluated on plasma after centrifugation; format: cell-based; settings: plasma after centrifugation of blood at 2 000 g for 15 minutes
# Description: (§1) • le sang humain était du sang de sujets normaux, prélevé le jour de l'essai, en flacon siliconé, et sur citrate à 9 %, dans le rapport du 1/20; • les produits (microémulsions ou témoin) mis en présence de ce sang, en proportions variables, ont permis, après 10 minutes d'incubation à la température du laboratoire, de pratiquer un thromboélastogramme sur sang total, afin de mettre en évidence une action éventuelle sur la coagulation globale selon le mode opératoire décrit par C. RABY dans Biologie des Hémorragies et des Thromboses 1 vol., Masson et Cie, Edit. Paris 1966, p. 187; • un temps de thrombine diluée a été effectué sur les plasmas des sangs ayant été en contact avec les microémulsions selon l'invention pendant 30 minutes à la température du laboratoire selon le mode opératoire décrit par C. RABY à la page 119 de l'ouvrage cité ci-dessus.
# L'hémolyse a été évaluée sur ces plasmas après centrifugation du sang à 2 000 g pendant 15 minutes.
# [2] = Solubility and dispersion of the surfactant in physiological saline; format: physicochemical
# Description: A des fins de comparaison, on a également utilisé les microémulsions ci-dessus d'une part en présence d'éthanol et d'autre part en l'absence d'éthanol.
# En présence d'éthanol (VN), une solution limpide a été obtenue avec l'agent tensio-actif. Celle-ci, ajoutée dans les proportions de 0,2 ml à 1,8 ml d'eau physiologique, a donné, après agitation, une émulsion laiteuse, instable, s'éclaircissant en 15 minutes environ, tant à la température du laboratoire qu'à 37 °C.
# sang humain [3] = experiment: In vitro haemocompatibility: direct action on blood, overall observation
# Description: On a recherché si les microémulsions selon l'invention avaient une action sur le sang humain en effectuant un thromboélastogramme, en mesurant le temps de thrombine diluée et en évaluant l'hémolyse.
# as §1
# (§2) Cette émulsion, mise en présence de quatre échantillons de sang humain, à raison de 0,1 ml pour 0,9 ml de sang, a permis d'effectuer les essais définis ci-dessus.
# sang humain [4] = experiment: Diluted thrombin time on plasma of blood put in contact with the products; format: biochemical; settings: summary
# Description: as §1
# Dans la détermination du temps de thrombine on a utilisé de l'eau physiologique comme témoin.
# [5] = Cloud point of the surfactant; format: physicochemical
# sang humain [6] = experiment: Thromboelastogram on whole blood; settings: after recalcification, emulsion with ethanol, 10 minutes incubation
# Description: as §1, §2
# [7] = ethanol solution, 0,2 ml in 1,8 ml eau physiologique, laboratory temperature and 37 °C
# [8] = emulsion with ethanol, 0,1 ml for 0,9 ml blood
compound,measurement,setting,value
OCCOCCOCCOCCOCCOCCOCC(F)(F)C(F)(F)C(F)(F)C(F)(F)C(F)(F)C(F)(F)C(F)(F)F [C7F15CH2(OC2H4)6OH],hémolyse,sang humain [1],aucune trace
same,hémolyse,sang humain [1]; listed as agent tensio-actif seul,absence
same,soluble dans les solutés physiologiques,[2],n'est pas soluble
same,stabilité de l'émulsion,[2]; [7],instable
same,temps d'éclaircissement de l'émulsion,[2]; [7],~15 min
same,action directe sur du sang normal,sang humain [3]; [8],Aucune action directe
same,fluidité,sang humain [3]; [8],n'a pas été altérée
same,"effet in vitro sur le sang humain, non coagulé",sang humain [3]; summary,sans effet
same,activité semblable à la thrombine,sang humain [4],ne produisent pas
same,point de trouble,[5],< 0 °C
same,amplitude « amx »,sang humain [6],diminution
same,constante « r »,sang humain [6],léger raccourcissement
same,« k,sang humain [6],allongement

# Source: patent EP0063149B1, “AQUEOUS FLUOROCARBIDE EMULSIONS INDEFINITELY STABLE AT A GIVEN TEMPERATURE, PROCESS FOR OBTAINING THEM AND APPLICATIONS” (Etablissement Public dit: CENTRE NATIONAL DE LA RECHERCHE …, priority 1980, dated 1982)
